“Also recorded” adds a separate entry of the source. Like-named read-outs stand apart in the source and are kept apart here. Values belong to the compound of their own block, whether it stands above or below them.
How the values were obtained:
[1] = system: mouse EAE model (clinical score); assay: Mouse Experimental Autoimmune Encephalomyelitis Assay (EAE); format: in vivo; conditions: C57Bl/6 mice, prophylactic oral dosing regimen
Description: Mouse Experimental Autoimmune Encephalomyelitis Assay (EAE)
Mice (C57BL/6 female, 6-8 weeks of age, Charles River, n=10 treatment group) were immunized subcutaneously with 150 μg MOG35-55 emulsified 1:1 with incomplete Freund's adjuvant (sigma) supplemented with 150 μg Mycobacterium tuberculosis H37RA (Difco Laboratories). 400 ng of pertussis toxin (CalBiochem) was injected intraperitoneally on the day of immunization and 2 day later. Clinical scoring and body weight were taken 3 times per week. Clinical scoring system: 0.5: partial tail weakness; 1: limp tail or waddling gait with tail tonicity; 1.5: waddling gait with partial tail weakness; 2: waddling gait with limp tail (ataxia); 2.5: ataxia with partial limb paralysis; 3: full paralysis of one limb; 3.5: full paralysis of one limbs with partial paralysis of a second limb; 4: full paralysis of two limbs; 4.5: moribund; 5: death. Mean clinical score was calculated by averaging the scores of all mice in each group. All procedures involving animals were reviewed and approved by the Institutional Animal Care Use Committee.

[2] = system: rat adjuvant-induced arthritis model (hind paw volume); assay: Rat Adjuvant Induced Arthritis Assay (AA); format: in vivo, Lewis rats; conditions: Lewis rat, prophylactic oral dosing regimen
Description: Rat Adjuvant Induced Arthritis Assay (AA)
The rat adjuvant-induced arthritis model is an animal model for human rheumatoid arthritis.
Male Lewis rats (150-175 g; Harlan, n=8 treatment group) were immunized at the base of the tail with 100 μl of 10 mg/ml freshly ground Mycobacterium butyricum (Difco Laboratories) in incomplete Freund's adjuvant (sigma). Animals were dosed once daily with the test article (as a solution or suspension in the vehicle) or vehicle alone (polyethylene glycol 300, “PEG300”) starting from the day of immunization. The volumes of their hind paws were measured in a water displacement plethysmometer (Ugo Basile, Italy). The baseline paw measurements were taken before onset of the disease (between day 7 to day 10). The paw measurements were then taken three times a week until the end of the study on day 20 to 21. All procedures involving animals were reviewed and approved by the Institutional Animal Care Use Committee.

[3] = system: rat EAE model (clinical score); assay: Rat Experimental Autoimmune Encephalomyelitis (EAE); format: in vivo, Lewis rats; conditions: Lewis rat; for Clinical Score on Day 11 (Mean): rat EAE, prophylactic oral dosing
Description: Rat Experimental Autoimmune Encephalomyelitis (EAE):
Female Lewis rats (150-200 g; Harlan) were immunized at the base of the tail with 0.1 ml of a complete Freund's adjuvant emulsion containing 0.5 mg/mL guinea pig myelin basic protein (Genemed Synthesis) and 2 mg/mL Mycobacterium butyricum (Difco). Beginning on Day 7, rats (n=11/group) were scored individually at least 3×/wk according to the following scheme:
Average clinical scores were calculated for each treatment group on each day of assessment.

hS1P1 = hS1P1 (Homo sapiens (Human), UniProt P21453); assay: hS1P1 ERK phosphorylation (S1P1 pERK) in hS1P1/CHO cells; format: cell-based; conditions: phosphate examples
Description: hS1P1 ERK Phosphorylation (S1P1 pERK)
hS1P1/CHO cells were plated into BD Amine 384-well plates the day before the assay. On the day of the assay, growth medium was removed and replaced with serum-free medium (Ham's F-12 Invitrogen) and incubated for 2 hours. Test compounds pre-diluted in HBSS (Gibco)/20 mM HEPES (Gibco) were transferred to the cell plates and incubated for 7 minutes at 37° C. Cells were lysed in lysis buffer (Perkin Elmer) and phospho-ERK was measured using the SureFire pERK kit (Perkin Elmer) as described by the manufacturer. Data was plotted as percentage activation of the test compound relative to the efficacy of 10 μM S1P.

S1P1 [4] = molecular target: T1, S1P1 (Homo sapiens (Human), UniProt P21453); assay: Receptor [35S] GTPγS binding assay (S1P1 GTPγS), membranes from S1P1/CHO cells; format: biochemical; conditions: for activity as an agonist of S1P1: result in words
Description: (§1) Receptor [^35S] GTPγS Binding Assays: (S1P1 GTPγS/S1P3 GTPγS)
(§2) Membranes prepared from S1P1/CHO cells or EDG3-Gal5-bla HEK293T cells (EDG3 equivalent S1P3) were added to the compound plate ([…], final protein 3 μg/well) with MULTIDROP®. [^35S]GTP (1250 Ci/mmol, Perkin Elmer) was diluted in assay buffer: 20 mM HEPES, pH7.5, 10 mM MgCl2, 150 mM NaCl, 1 mM EGTA (ethylene glycol tetraacetic acid), 1 mM DTT (Dithiothreitol), 10 μM GDP, 0.1% fatty acid free BSA, and 10 μg/ml Saponin to 0.4 nM. 40 μl of the [^35S] GTP solution was added to the compound plate with a final concentration of 0.2 nM. The reaction was kept at room temperature for 45 min. At the end of incubation, all the mixtures in the compound plate were transferred to Millipore 384-well FB filter plates via the VELOCITY11® Vprep liquid handler. The filter plate was washed with water 4 times by using the manifold Embla plate washer and dried at 60° C. for 45 min. MicroScint 20 scintillation fluid (30 μl) was added to each well for counting on the Packard TOPCOUNT®.
A larger value for the GTPγS S1P3 EC50 value indicated less activity in the GTPγS S1P3 binding assay.

S1P3 (EDG3) = S1P3 (EDG3) (Homo sapiens (Human), UniProt Q99500); assay: Receptor [35S] GTPγS binding assay (S1P3 GTPγS), membranes from EDG3-Gal5-bla HEK293T cells; format: biochemical
Description: as §1
as §2, with “Compounds were loaded in a 384 Falcon v-bottom plate ([…] in a 11 point, 3-fold dilution). Membranes” for “Membranes”
A smaller value for GTPγS S1P1 EC50 value indicated greater activity for the compound in the GTPγS S1P1 binding assay. A larger value for the GTPγS S1P3 EC50 value indicated less activity in the GTPγS S1P3 binding assay. […]

S1P1 [5] = molecular target: T1, S1P1; assay: S1P1 binding assay (33P-S1P radioligand competition, membranes from CHO cells)
Description: Membranes were prepared from CHO cells expressing human S1P1. Cells pellets (1×10^9 cells/pellet) were suspended in buffer containing 20 mM HEPES (4-(2-hydroxyethyl)-1-piperazineethanesulfonic acid), pH 7.5, 50 mM NaCl, 2 mM EDTA (Ethylenediaminetetraacetic acid) and Protease Inhibitor cocktail (Roche), and disrupted on ice using the Polytron homogenizer. The homogenate was centrifuged at 20,000 rpm (48,000 g) and the supernatant was discarded. The membrane pellets were resuspended in buffer containing 50 mM HEPES, pH 7.5, 100 mM NaCl, 1 mM MgCl2, 2 mM EDTA and stored in aliquots at −80° C. after protein concentration determination.

[6] = system: MRL/lpr spontaneous lupus model; assay: MRL/lpr Lupus Model (anti-dsDNA antibody titers, kidney histology); format: in vivo; conditions: MRL/lpr mice, p.o. daily, 0.06, 0.3, 1.5 mg/kg
Excerpt: MRL/lpr Lupus Model: MRL/lpr is a spontaneous model of lupus. Male MRL/lpr mice (Jackson Laboratory) at the age of 12-14 weeks were enrolled for the study (N=12). […] Mice were bled every other week for anti-dsDNA antibodies measured by ELISA using pooled serum from diseased MRL/lpr mice as a positive comparator in each assay. The data were expressed in arbitrary units as a ratio of the titer of the test serum to the titer of the pooled MRL/lpr immune serum. At the end of study, one kidney was collected into 10% neutral buffered formalin and ZincTris fixatives. Fixed tissues were processed into paraffin blocks, sectioned at 3 μm, and stained with H&E or PASH. Kidney sections were graded using following criteria: Glomerular Damage: 1. Mesangial matrix thickening, cell proliferation, 2. Crescent formation, cellular deposits/casts in Bowman's space, 3. Cellular infiltration, mononuclear cells in glomerular tufts, 4. Fibrosis of Bowman's capsule. Tubular damage: 1. Infiltration of mononuclear cells, 2. Severity of tubular damage, 3. Protein casts. Tubulo-interstitial damage: 1. Fibrosis, 2. Infiltration of mononuclear cells. Each subcategory was assigned a score from 0-4, with the scores for glomerular indices representing the mean from 20 glomeruli per kidney. The total score for each mouse was the sum of the above 9 subcategories, with the highest possible score=36.

[7] = membranes from S1P1/CHO cells, read-out: GTPγS S1P1 EC50
[8] = 33P-S1P competition, membranes from CHO cells expressing human S1P1, read-out: S1P1 Binding IC50

T1 sequence (P21453 whole entry): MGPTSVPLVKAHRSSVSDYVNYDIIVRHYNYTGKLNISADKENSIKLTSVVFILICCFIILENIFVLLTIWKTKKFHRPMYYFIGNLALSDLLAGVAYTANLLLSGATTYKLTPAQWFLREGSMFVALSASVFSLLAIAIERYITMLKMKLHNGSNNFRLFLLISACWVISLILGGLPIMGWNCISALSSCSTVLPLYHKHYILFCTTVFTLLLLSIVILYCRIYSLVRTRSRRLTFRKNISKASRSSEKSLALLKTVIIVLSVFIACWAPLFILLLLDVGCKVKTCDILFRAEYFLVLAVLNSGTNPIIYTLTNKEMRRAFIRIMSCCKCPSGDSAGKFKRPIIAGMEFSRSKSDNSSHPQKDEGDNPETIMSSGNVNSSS
Chain of S1P3 (EDG3) (Q99500 whole entry): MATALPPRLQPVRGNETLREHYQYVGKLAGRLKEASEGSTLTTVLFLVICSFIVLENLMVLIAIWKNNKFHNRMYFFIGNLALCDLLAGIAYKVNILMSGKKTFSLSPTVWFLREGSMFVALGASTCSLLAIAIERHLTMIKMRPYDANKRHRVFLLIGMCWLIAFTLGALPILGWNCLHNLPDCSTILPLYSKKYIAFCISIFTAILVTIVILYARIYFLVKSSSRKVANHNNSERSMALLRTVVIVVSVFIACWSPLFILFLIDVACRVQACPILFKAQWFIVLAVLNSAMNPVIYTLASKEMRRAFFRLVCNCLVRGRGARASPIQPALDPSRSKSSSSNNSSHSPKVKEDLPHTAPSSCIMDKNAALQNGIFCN
Chain of hS1P1 (P21453 whole entry): as the sequence (P21453 whole entry) above

Compound: CCOCCC[C@@H]1CCc2cc([C@H]3CC[C@](N)(CO)C3)ccc2C1 [Example 679, ((1R,3S)-1-amino-3-((S)-6-(3-ethoxypropyl)-5,6,7,8-tetrahydronaphthalen-2-yl)cyclopentyl)methanol]
inhibition of disease progression as measured by clinical scores [1]: showed inhibition of disease progression; also recorded: inhibit disease progression | inhibition of disease progression as measured by reduced paw swelling [2]: showed inhibition of disease progression | inhibition of disease progression as measured by reduced clinical scores ([3]; prophylactic oral dosing regimen): showed inhibition of disease progression | Clinical Score on Day 11 (Mean) ([3]; 0.3 mg/kg): 0.36 | Clinical Score on Day 11 (Mean) ([3]; 1.0 mg/kg): 0.09 | Clinical Score on Day 11 (Mean) ([3]; 3.0 mg/kg): 0.02

Compound: COCCCCC[C@H]1CCc2cc([C@H]3CC[C@](N)(CO)C3)ccc2C1 [Example 672, ((1R,3S)-1-amino-3-((S)-6-(5-methoxypentyl)-5,6,7,8-tetrahydronaphthalen-2-yl)cyclopentyl)methanol]
inhibition of disease progression as measured by reduced paw swelling [2]: showed inhibition of disease progression

Compound: CCC/C=C/CO[C@@H]1CCc2cc([C@H]3CC[C@](N)(COP(=O)(O)O)C3)ccc2C1 [compound 439]
EC50 (hS1P1): < 10 nM | EC50 (S1P1 [4]; phosphate examples, read-out: S1P1 GTPγS): 10 to 100 nM | EC50 (S1P3 (EDG3); phosphate examples): > 625 nM | IC50 (S1P1 [5]; phosphate examples, read-out: S1P1 Binding): < 10 nM

Compound: COCCCCCC1CCc2cc([C@H]3CC[C@](N)(COP(=O)(O)O)C3)ccc2C1 (single isomer, unassigned) [Example 689]
activity as an agonist of S1P1 (S1P1 [4]): possessed activity as an agonist of S1P1 | selectivity over S1P3 (S1P3 (EDG3); result in words, S1P1 versus S1P3 GTPγS): selective over S1P3

Compound: COCCCCCC1CCc2cc([C@@H]3CC[C@](N)(COP(=O)(O)O)C3)ccc2C1 (single isomer, unassigned) [Example 692]
EC50 (S1P1 [4]; [7]): 4.4 nM

Compound: COc1ccccc1CC[C@@H]1CCc2cc([C@H]3CC[C@](N)(CO)C3)ccc2C1 [Example 681, ((1R,3S)-1-amino-3-((S)-6-(2-methoxyphenethyl)-5,6,7,8-tetrahydronaphthalen-2-yl)cyclopentyl)methanol]
inhibition of disease progression as measured by clinical scores [1]: showed inhibition of disease progression; also recorded: inhibit disease progression | inhibition of disease progression as measured by anti-dsDNA titers and kidney histology [6]: showed inhibition of disease progression

The next lines start with the values.

EC50 (S1P1 [4]; [7]): 49 nM | IC50 (S1P1 [5]; [8]): 119 nM
Compound: CCOCCCC1CCc2cc([C@H]3CC[C@](N)(COP(=O)(O)O)C3)ccc2C1 (single isomer, unassigned) [Example 695]

activity as an agonist of S1P1 (S1P1 [4]): possessed activity as an agonist of S1P1
Compound: COc1ccccc1CCC1CCc2cc([C@H]3CC[C@](N)(COP(=O)(O)O)C3)ccc2C1 (single isomer, unassigned) [Example 697]

EC50 (S1P1 [4]; [7]): 19.2 nM | IC50 (S1P1 [5]; [8]): 5.2 nM
Compound: COc1cccc(CCC2CCc3cc([C@H]4CC[C@](N)(COP(=O)(O)O)C4)ccc3C2)c1 (single isomer, unassigned) [Example 693]

Reference: US10166249B2, “Substituted bicyclic compounds” (BRISTOL-MYERS SQUIBB COMPANY, priority 2014, dated 2019)
